In data set [1] the test system is Hs578T. The experiment in a line: Matrigel outgrowth assay/branching assay. Type of data set: cell-based. The following applies: Homo sapiens, Hs-578T; HS578T cell line; Table Ib; read-out: Total branching inhibition in Matrigel HS578T. In outline:
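Cells (5000/well) were seeded onto polymerized 3 mg/ml Matrigel with compound at 3.125, 1.56 or 0.78 μM, or DMSO. Imaging by inverted microscopy at 48, 72 and 96 h scored invasive branching. Only concentrations giving total branching inhibition counted as positive.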

The test system of data set [2] is Hs578T. The experiment in a line: Cell vitality assay (ATP assay, CellTiter-Glo). The format is cell-based. The following applies: Homo sapiens, Hs-578T; HS578T cell line, 72 h; Table Ib; read-out: IC50 ATP-Assay HS578T after 72 h. In outline: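 1000 cells/well were exposed to compound at 12.5 μM down to 0.195 μM (twofold steps) or DMSO for 72 h. ATP was then measured by luminescence after 10 min reagent lysis at room temperature. IC50 was taken as the concentration giving 50% of the DMSO-control ATP level.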

Data set [3] addresses T1, wild type AXL (wtAXL) receptor tyrosine kinase (Homo sapiens, UniProt P30530).
T1 construct: WtAXL cDNA was cloned into vector pLXSN(ESK) and transfected into Phoenix E packaging cells; expressed in transfected cells; host or cells: NIH3T3 N7 (mouse fibroblasts), retrovirally infected, clone 22
T1 sequence (P30530 26-894): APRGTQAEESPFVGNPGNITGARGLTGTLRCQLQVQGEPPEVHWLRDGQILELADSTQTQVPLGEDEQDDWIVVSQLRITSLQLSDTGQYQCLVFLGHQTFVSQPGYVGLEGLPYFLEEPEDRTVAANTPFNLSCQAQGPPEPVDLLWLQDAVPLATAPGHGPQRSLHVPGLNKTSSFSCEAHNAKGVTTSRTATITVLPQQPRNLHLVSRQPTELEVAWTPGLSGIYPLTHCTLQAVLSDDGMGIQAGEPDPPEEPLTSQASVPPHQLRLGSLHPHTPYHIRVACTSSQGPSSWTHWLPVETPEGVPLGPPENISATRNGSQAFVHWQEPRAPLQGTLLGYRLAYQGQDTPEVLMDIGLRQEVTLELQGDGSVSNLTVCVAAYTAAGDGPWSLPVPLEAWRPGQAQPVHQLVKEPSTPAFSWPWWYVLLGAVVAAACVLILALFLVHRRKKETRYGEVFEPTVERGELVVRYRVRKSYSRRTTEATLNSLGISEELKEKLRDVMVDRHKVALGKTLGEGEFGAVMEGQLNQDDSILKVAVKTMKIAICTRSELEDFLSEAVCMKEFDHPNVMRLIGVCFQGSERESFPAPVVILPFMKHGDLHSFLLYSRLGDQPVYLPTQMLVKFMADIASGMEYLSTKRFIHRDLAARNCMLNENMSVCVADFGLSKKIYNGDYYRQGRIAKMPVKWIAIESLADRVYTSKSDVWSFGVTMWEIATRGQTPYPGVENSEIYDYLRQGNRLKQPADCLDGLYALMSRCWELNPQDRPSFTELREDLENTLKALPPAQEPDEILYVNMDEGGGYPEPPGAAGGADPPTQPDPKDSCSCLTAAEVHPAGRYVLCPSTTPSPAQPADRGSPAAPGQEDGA
The experiment in a line: NIH-3T3-AXL cellular kinase assay (pY-AXL-ELISA). The conditions noted are these: NIH-3T3-AXL (clone 22) cells, serum depleted, compounds 1 h; Table Ia. Type of data set: cell-based. As to the method:
WtAXL cDNA was cloned into vector pLXSN(ESK) and transfected into Phoenix E packaging cells. The viral supernatant was collected and used to infect target cells NIH3T3 N7. Monoclonal NIH3T3-AXL cell lines stably expressing wtAXL were generated by selecting retrovirally infected cells in medium containing puromycin (2 μg/ml) and subsequent clonal separation.
Serial dilutions of compounds were added, and the cells were further incubated for 1 h. Cells were washed with PBS and lysed on ice in 500 μl lysis buffer (50 mM HEPES (pH 7.5), 150 mM NaCl, 1 mM EGTA, 10% Glycerol, 1% Triton X-100, 100 mM NaF, 10 mM Na4P2O7.10H2O, 1 mM Na3VO4, 1 mM phenylmethylsulfonyl fluoride, and […]) for 15 min. The cell lysate were used for phosphotyrosine AXL enzyme-linked immunosorbant assay (pY-AXL-ELISA). […] Subsequently 96-well plates were blocked with PBS-0.05% Tween®20+10% FBS for 4 h at 37° C. Plates were washed 5 times with PBS-0.05% Tween®20 and 95 μl of lysate was transferred per well for incubation overnight at 4° C. Plates were washed 5 times with PBS-0.05% Tween®20 (Sigma, Steinheim, Germany). For detection of phosphorylated tyrosine we used homemade biotynilated 4G10-antibody (0.5 μg/ml) in PBS-0.05% Tween®20+10% FBS (100 μl/well) and incubated the 96-well plate for 2 h at room temperature. The anti-phosphotyrosine mouse monoclonal antibody 4G10 was biotynilated with Sulfo-NHS®-Biotin according to the suppliers protocol (Pierce, Rockford, Ill., USA) and purified by Mirco Bio-Spin 6 Chromatograpy Columns (BIO RAD Laboratories, Inc., Hercules, Calif., USA) using PBS as diluent. Plates were washed 5 times with PBS-0.05% Tween®20. For biding to biotin Alkaline Phosphatase Conjugated Strepavidin SA110 (Millipore, Billerica, Mass., USA) (1:4000) was used in PBS-0.05% Tween20+10% FBS (100 μl/well) and incubated for 30 min at room temperature. Plates were washed 5 times with PBS-0.05% Tween20. For fluorimetric detection of alkaline phosphatase AttoPhos Substrate Set (Roche diagnostics GmbH, Mannheim, Germany) was used (100 μl/well). The fluorimetric signal was quantified after 90 min at 430/560 nm wavelength using a TECAN Ultra Evolution plate reader (Tecan Deutschland GmbH, Crailsheim, Germany).
For orientation: ELISA stands for enzyme-linked immunosorbent assay.

In data set [4] the test system is Hs578T. Kind of data set: Wound healing migration assay. Type of data set: cell-based. The conditions noted are these: Homo sapiens, Hs-578T; HS578T cell line; Table Ib. In outline: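 Cells seeded at 150000/24 well, grown to monolayer overnight, scratched with a pipette tip, then treated with compound at 12.5, 6.25 or 3.125 μM versus DMSO. Stopped by crystal violet fixation at 48-72 h once control wounds closed; IC50 taken as 50% wound size between t0 and t48 or t72.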

In turn, `COc1cc2c(Oc3ccc(NS(=O)(=O)c4cccc(C(F)(F)F)c4)cc3F)ccnc2cc1OCCCN1CCCCC1` [Example 5, N-{3-Fluoro-4-[6-methoxy-7-(3-piperidin-1-yl-propoxy)-quinolin-4-yloxy]-phenyl}-3-trifluoromethyl-benzenesulfonamide] gave a melting point of 123 to 126 °C. In addition, in data set [1], the IC50 was in the range of 10 to 25 µM. For the same compound, in data set [2], the IC50 is at most 12.5 µM. In addition, the IC50 in data set [3] is below 0.5 µM. Besides, the IC50 in data set [4] was 12.5 to 50 µM.
On the same counts, the results for `COc1cc2c(Oc3ccc(NS(=O)(=O)c4cccc(OC(F)F)c4)cc3F)ccnc2cc1OCCCN1CCCCC1` [Example 9, 3-Difluoromethoxy-N-{3-fluoro-4-[6-methoxy-7-(3-piperidin-1-yl-propoxy)-quinolin-4-yloxy]-phenyl}-benzenesulfonamide] are 105 to 106 °C, 10 to 25 µM, at most 12.5 µM, below 0.5 µM and 12.5 to 50 µM.
On the same counts, the results for `COc1cc2c(Oc3ccc(NS(=O)(=O)c4ccccc4)cc3F)ccnc2cc1OCCCN1CCCC(C)C1` (stereo not drawn) [Example 36, N-(3-Fluoro-4-{6-methoxy-7-[3-(3-methyl-piperidin-1-yl)-propoxy]-quinolin-4-yloxy}-phenyl)-benzenesulfonamide] are 160 to 161 °C, 10 to 25 µM, at most 12.5 µM, below 0.5 µM and 12.5 to 50 µM.
In turn, `COc1cc2c(Oc3ccc(NS(=O)(=O)c4cccc(F)c4)cc3F)ccnc2cc1OCCCN1CCCC(C)C1` (stereo not drawn) [Example 37, 3-Fluoro-N-(3-fluoro-4-{6-methoxy-7-[3-(3-methyl-piperidin-1-yl)-propoxy]-quinolin-4-yloxy}-phenyl)-benzenesulfonamide] came in with a melting point of 113 to 115 °C. In data set [1], the IC50 is 10 to 25 µM. The IC50 in data set [2] was at most 12.5 µM. The compound further displayed an IC50 in data set [3] below 0.5 µM. Besides, the IC50 in data set [4] fell in the range of 12.5 to 50 µM.
On the same counts, the results for `COc1cc2c(Oc3ccc(NS(=O)(=O)c4cccc(OC(F)F)c4)cc3F)ccnc2cc1OCCCN1CCCC(C)C1` (stereo not drawn) [Example 43, 3-Difluoromethoxy-N-(3-fluoro-4-{6-methoxy-7-[3-(3-methyl-piperidin-1-yl)-propoxy]-quinolin-4-yloxy}-phenyl)-benzenesulfonamide] are 99 to 100 °C, at most 10 µM, at most 12.5 µM, below 0.5 µM and at most 12.5 µM.
Taken in the same sequence, the figures for `COc1cc2c(Oc3ccc(NS(=O)(=O)c4ccccc4C)cc3F)ccnc2cc1OCCCN1CCCC(C)C1` (stereo not drawn) [Example 44, N-(3-Fluoro-4-{6-methoxy-7-[3-(3-methyl-piperidin-1-yl)-propoxy]-quinolin-4-yloxy}-phenyl)-2-methyl-benzenesulfonamide] were 99 to 100 °C, at most 10 µM, at most 12.5 µM, below 0.5 µM and at most 12.5 µM.
On the same counts, the results for `COc1cc2c(Oc3ccc(NS(=O)(=O)c4cccc(OC(F)(F)F)c4)cc3F)ccnc2cc1OCCCN1CCCC(C)C1` (stereo not drawn) [Example 46, N-(3-Fluoro-4-{6-methoxy-7-[3-(3-methyl-piperidin-1-yl)-propoxy]-quinolin-4-yloxy}-phenyl)-3-trifluoromethoxy-benzenesulfonamide] are 102 to 104 °C, at most 10 µM, at most 12.5 µM, below 0.5 µM and at most 12.5 µM.
As to `COc1cc2c(Oc3ccc(NS(=O)(=O)c4ccc(F)c(F)c4)cc3F)ccnc2cc1OCCCN1CCCC(C)C1` (stereo not drawn) [Example 48, 3,4-Difluoro-N-(3-fluoro-4-{6-methoxy-7-[3-(3-methyl-piperidin-1-yl)-propoxy]-quinolin-4-yloxy}-phenyl)-benzenesulfonamide], the melting point lay in the range of 120 to 122 °C. Moreover, in data set [1], the IC50 was 10 to 25 µM. For the same compound, the IC50 in data set [2] was at most 12.5 µM. This compound also displayed an IC50 in data set [3] below 0.5 µM. This compound registered an IC50 in data set [4] of at most 12.5 µM.
In turn, `COc1cc2c(Oc3ccc(NS(=O)(=O)c4cc(Cl)ccc4Cl)cc3F)ccnc2cc1OCCCN1CCCC(C)C1` (stereo not drawn) [Example 50, 2,5-Dichloro-N-(3-fluoro-4-{6-methoxy-7-[3-(3-methyl-piperidin1-yl)-propoxy]-quinolin-4-yloxy}-phenyl)-benzenesulfonamide] came in with a melting point of 127 to 129 °C. The IC50 in data set [1] is at most 10 µM. For the same compound, in data set [2], the IC50 is at most 12.5 µM. Also, in data set [3], the IC50 was below 0.5 µM. The compound also gave an IC50 in data set [4] of at most 12.5 µM.
In turn, `COc1cc2c(Oc3ccc(NS(=O)(=O)c4ccc(Cl)c(Cl)c4)cc3F)ccnc2cc1OCCCN1CCCC(C)C1` (stereo not drawn) [Example 52, 3,4-Dichloro-N-(3-fluoro-4-{6-methoxy-7-[3-(3-methyl-piperidin-1-yl)-propoxy]-quinolin-4-yloxy}-phenyl)-benzenesulfonamide] came in with a melting point of 123 to 124 °C. The IC50 in data set [1] is at most 10 µM. Moreover, the IC50 in data set [2] was at most 12.5 µM. Also, the IC50 in data set [3] was below 0.5 µM. In data set [4], this compound had an IC50 of at most 12.5 µM.
`COc1cc2c(Oc3ccc(NS(=O)(=O)c4cc(Cl)cc(Cl)c4)cc3F)ccnc2cc1OCCCN1CCCC(C)C1` (stereo not drawn) [Example 53, 3,5-Dichloro-N-(3-fluoro-4-{6-methoxy-7-[3-(3-methyl-piperidin-1-yl)-propoxy]-quinolin-4-yloxy}-phenyl)-benzenesulfonamide]: the melting point was 126 to 128 °C. Besides, in data set [1], the IC50 was in the range of 10 to 25 µM. For the same compound, the IC50 in data set [2] is at most 12.5 µM. In addition, in data set [3], the IC50 was below 0.5 µM. In data set [4], the IC50 is at most 12.5 µM.
Regarding `COc1cc2c(Oc3ccc(NS(=O)(=O)c4c(F)cccc4F)cc3Cl)ccnc2cc1OCCCN1CCN(C)CC1` [Example 118, N-(3-Chloro-4-{6-methoxy-7-[3-(4-methyl-piperazin-1-yl)-propoxy]-quinolin-4-yloxy}-phenyl)-2,6-difluoro-benzenesulfonamide], the melting point lay within 122 to 124 °C. The compound further returned an IC50 in data set [3] below 0.5 µM.

The melting point is the temperature of the solid-liquid transition.

For the origin of these results see patent US9169241B2, “Quinolinyloxyphenylsulfonamides” (Max-Planck-Gesellschaft Zur Forderung der Wissenschaften …, priority 2009, dated 2015).
